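Growth conditions: 96-well plates. Treatment: test compound, 48 hours, 5 concentrations. Analysis: linear interpolation between bracketing concentrations; unreached endpoints set to highest concentration. Here, GI50 denotes the concentration required for 50% inhibition of growth.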 Active and inactive are the calls of the source. Cut-off read from the data, not from the text of the source: active = GI50 up to about 1.1 µM and inactive = higher.
Legend:
Test in all cases: inhibition of tumour cell growth, NCI panel, 48 h
A498 = test system: A498
COLO 205 = test system: COLO 205
MDA-MB-231 = test system: MDA-MB-231
MOLT-4 = test system: MOLT-4
SK-MEL-2 = test system: SK-MEL-2
DU-145 = test system: DU-145
U-251 = test system: U-251
HCT-116 = test system: HCT-116
M14 = test system: M14
SN12C = test system: SN12C
SK-OV-3 = test system: SK-OV-3
HT-29 = test system: HT-29
Hs-578T = test system: Hs-578T
T47D = test system: T47D
SW-620 = test system: SW-620
OVCAR-8 = test system: OVCAR-8
SF-295 = test system: SF-295
NCI-H23 = test system: NCI-H23
CAKI-1 = test system: CAKI-1
OVCAR-3 = test system: OVCAR-3
LOX IMVI = test system: LOX IMVI
Malme-3M = test system: Malme-3M
MDA-N = test system: MDA-N
UACC-62 = test system: UACC-62
CCRF-CEM = test system: CCRF-CEM
NCI-H226 = test system: NCI-H226
HOP-62 = test system: HOP-62
SK-MEL-5 = test system: SK-MEL-5
UACC-257 = test system: UACC-257
SNB-75 = test system: SNB-75
A549 = test system: A549
UO-31 = test system: UO-31
OVCAR-4 = test system: OVCAR-4
IGROV-1 = test system: IGROV-1
EKVX = test system: EKVX
HCC 2998 = test system: HCC 2998
SF-268 = test system: SF-268
SF-539 = test system: SF-539
OVCAR-5 = test system: OVCAR-5
SK-MEL-28 = test system: SK-MEL-28
HL-60 = test system: HL-60
RXF 393 = test system: RXF 393
TK-10 = test system: TK-10
SR = test system: SR
BT-549 = test system: BT-549
MCF7 = test system: MCF7
HCT-15 = test system: HCT-15
NCI-H460 = test system: NCI-H460
MDA-MB-435 = test system: MDA-MB-435
K562 = test system: K562
HOP-92 = test system: HOP-92
SNB-19 = test system: SNB-19
PC-3 = test system: PC-3
NCI/ADR-RES = test system: NCI/ADR-RES
KM12 = test system: KM12
RPMI-8226 = test system: RPMI-8226
786-0 = test system: 786-0
NCI-H522 = test system: NCI-H522
ACHN = test system: ACHN

Measured: GI50

COC(Cc1cc(C(O)(c2ccc(C(C)(C)C)cc2)c2cc(CC(OC)(c3cc(C(OC)(c4ccc(C(C)(C)C)cc4)c4ccc(C(C)(C)C)cc4)c(C)cc3C)c3cc(C(OC)(c4ccc(C(C)(C)C)cc4)c4ccc(C(C)(C)C)cc4)c(C)cc3C)c(C)cc2C)c(C)cc1C)(c1cc(C(OC)(c2ccc(C(C)(C)C)cc2)c2ccc(C(C)(C)C)cc2)c(C)cc1C)c1cc(C(OC)(c2ccc(C(C)(C)C)cc2)c2ccc(C(C)(C)C)cc2)c(C)cc1C
inactive: A498 > 75 µM | COLO 205 > 75 µM | MDA-MB-231 > 75 µM | MOLT-4 > 75 µM | SK-MEL-2 > 75 µM | DU-145 > 75 µM | U-251 > 75 µM | HCT-116 > 75 µM | M14 > 75 µM | SN12C > 75 µM | SK-OV-3 > 75 µM | HT-29 > 75 µM | Hs-578T > 75 µM | T47D > 75 µM | SW-620 > 75 µM | OVCAR-8 > 75 µM | SF-295 > 75 µM | NCI-H23 > 75 µM | CAKI-1 > 75 µM | OVCAR-3 > 75 µM | LOX IMVI > 75 µM | Malme-3M > 75 µM | MDA-N > 75 µM | UACC-62 > 75 µM | CCRF-CEM > 75 µM | NCI-H226 > 75 µM | HOP-62 > 75 µM | SK-MEL-5 > 75 µM | UACC-257 > 75 µM | SNB-75 > 75 µM | A549 > 75 µM | UO-31 > 75 µM | OVCAR-4 > 75 µM | IGROV-1 > 75 µM | EKVX > 75 µM | HCC 2998 > 75 µM | SF-268 > 75 µM | SF-539 > 75 µM | OVCAR-5 > 75 µM | SK-MEL-28 > 75 µM | HL-60 > 75 µM | RXF 393 > 75 µM | TK-10 > 75 µM | SR > 75 µM | BT-549 > 75 µM | MCF7 > 75 µM | NCI-H460 > 75 µM | MDA-MB-435 > 75 µM | K562 > 75 µM | HOP-92 > 75 µM | SNB-19 > 75 µM | PC-3 > 75 µM | NCI/ADR-RES > 75 µM
> 75 µM: HCT-15

C/C(=N\NC(=S)Nc1ccc(Cl)cc1)c1nc2cccnc2[nH]1
2.39 µM: HCT-15
active: MOLT-4 0.687 µM | U-251 0.773 µM | OVCAR-3 0.352 µM | CCRF-CEM 0.492 µM | UO-31 0.713 µM | EKVX 0.608 µM | SF-268 0.438 µM | SF-539 0.938 µM | HL-60 0.818 µM | TK-10 0.309 µM | ACHN 0.822 µM | SR 0.92 µM | NCI-H460 0.665 µM
inactive: A498 6.21 µM | COLO 205 4.07 µM | MDA-MB-231 6.04 µM | SK-MEL-2 10.5 µM | DU-145 1.97 µM | HCT-116 1.53 µM | M14 1.48 µM | SN12C 2.81 µM | SK-OV-3 4.31 µM | HT-29 2.56 µM | Hs-578T 15.1 µM | T47D 3.37 µM | SW-620 4.93 µM | OVCAR-8 1.45 µM | SF-295 2.15 µM | NCI-H23 1.89 µM | CAKI-1 1.53 µM | KM12 1.23 µM | LOX IMVI 1.23 µM | Malme-3M 3.35 µM | MDA-N 5.13 µM | UACC-62 1.87 µM | RPMI-8226 3.27 µM | NCI-H226 1.77 µM | HOP-62 1.52 µM | SK-MEL-5 1.67 µM | UACC-257 2.28 µM | SNB-75 4.91 µM | 786-0 2.17 µM | A549 2.38 µM | OVCAR-4 5.64 µM | IGROV-1 3.08 µM | HCC 2998 1.3 µM | NCI-H522 6.89 µM | OVCAR-5 2.29 µM | SK-MEL-28 1.51 µM | BT-549 1.76 µM | MCF7 2.69 µM | MDA-MB-435 3.44 µM | K562 3.33 µM | HOP-92 1.27 µM | SNB-19 2.08 µM | PC-3 1.39 µM | NCI/ADR-RES 2.65 µM

COc1ccc(/N=N/C(=O)NC(CC(C)C)C(=O)NC(C)C(=O)O)cc1 (configuration not stated)
active: UACC-62 0.968 µM
1.3 µM: HCT-15
inactive: A498 > 100 µM | COLO 205 3.2 µM | MDA-MB-231 > 23.4 µM | MOLT-4 4.22 µM | SK-MEL-2 > 35.8 µM | DU-145 6.25 µM | U-251 > 100 µM | HCT-116 > 34.4 µM | M14 1.29 µM | SN12C > 20.4 µM | HT-29 > 40 µM | Hs-578T > 79.3 µM | T47D 3.63 µM | SW-620 16.9 µM | OVCAR-8 > 43.1 µM | SF-295 9.82 µM | NCI-H23 > 86.5 µM | CAKI-1 > 100 µM | OVCAR-3 28.8 µM | KM12 29 µM | LOX IMVI 4.68 µM | Malme-3M 29.2 µM | MDA-N 10.8 µM | RPMI-8226 20.8 µM | CCRF-CEM 6.28 µM | NCI-H226 > 75.2 µM | HOP-62 > 59.6 µM | SK-MEL-5 5.7 µM | UACC-257 23 µM | SNB-75 > 100 µM | 786-0 > 100 µM | A549 3.32 µM | UO-31 2.38 µM | OVCAR-4 > 69.5 µM | IGROV-1 18.6 µM | EKVX 30 µM | HCC 2998 4.46 µM | SF-268 > 24.3 µM | SF-539 2.04 µM | OVCAR-5 > 100 µM | SK-MEL-28 17.1 µM | HL-60 6.22 µM | RXF 393 > 100 µM | TK-10 > 29.9 µM | ACHN 1.53 µM | SR 12.7 µM | BT-549 52.8 µM | MCF7 27.5 µM | NCI-H460 9.66 µM | MDA-MB-435 1.98 µM | K562 1.54 µM | HOP-92 > 100 µM | SNB-19 > 100 µM | PC-3 4.72 µM | NCI/ADR-RES > 67.9 µM

O=c1c(C(c2ccccc2)c2c(O)oc3cc(O)ccc3c2=O)c(O)oc2cc(O)ccc12
inactive: A498 > 100 µM | COLO 205 > 100 µM | MDA-MB-231 > 100 µM | MOLT-4 > 100 µM | SK-MEL-2 > 100 µM | DU-145 > 100 µM | U-251 > 100 µM | HCT-116 > 100 µM | M14 > 100 µM | SN12C > 100 µM | SK-OV-3 > 100 µM | HT-29 > 100 µM | Hs-578T > 100 µM | T47D > 100 µM | SW-620 > 100 µM | OVCAR-8 > 100 µM | SF-295 > 100 µM | NCI-H23 > 100 µM | CAKI-1 > 100 µM | OVCAR-3 > 100 µM | LOX IMVI > 100 µM | Malme-3M > 100 µM | MDA-N > 100 µM | UACC-62 > 100 µM | CCRF-CEM > 100 µM | NCI-H226 > 100 µM | HOP-62 > 100 µM | SK-MEL-5 52 µM | UACC-257 > 100 µM | SNB-75 > 100 µM | A549 > 100 µM | UO-31 > 100 µM | OVCAR-4 > 100 µM | IGROV-1 > 100 µM | EKVX > 100 µM | HCC 2998 > 100 µM | SF-268 > 100 µM | SF-539 > 100 µM | OVCAR-5 > 100 µM | SK-MEL-28 > 100 µM | HL-60 > 100 µM | RXF 393 > 100 µM | TK-10 > 100 µM | SR > 100 µM | BT-549 > 100 µM | MCF7 > 100 µM | NCI-H460 > 100 µM | MDA-MB-435 > 100 µM | K562 > 100 µM | HOP-92 > 100 µM | PC-3 > 100 µM | NCI/ADR-RES > 100 µM
> 100 µM: HCT-15
